“And” between values parts separate entries of the source, which are not always exact repeats. Equal values may be shown once.
Experiments:
[1] = tested on: PTPN22 transcripts in PBMC; assay: Anti-CD3 antibody induced PTPN22 transcript level in PBMC in absence or presence of drug (RT-PCR, drug/no-drug ratio); assay type: cell-based, human; settings: anti-CD3 2.5 ug/ml, 24 hours
Procedure: PBMCs (1 million cells) of these subjects that were collected before the treatment were stimulated in vitro with anti-CD3 antibodies (2.5 ug/ml) in the absence or presence of corresponding drug (etanercept 250 ug/ml, adalimumab 100 ug/ml) for 24 hours. PBMC from subject BW34 was tested separately with etancercept and adalimumab. RNA was harvested from the stimulated cells and the level of PTPN22 transcripts was quantified with RT-PCR.
The PTPN22 level from cells stimulated in the presence of drug was then divided by the level obtained from cells stimulated in the absence of drug. This drug/no-drug ratio calculated from the 9 drug responders ranged from 1.67 to 2.5, whereas the ratio calculated from the 6 drug non-responders ranged from 0.86 to 1.35 (FIG. 4 and Table 1). […]

active RA patients = assay: Clinical response of active RA patients (CPIRA study) by Clinical Disease Activity Index (CDAI); assay type: in vivo, human; set-up: key to 2nd visit CDAI / ΔCDAI: CDAI = SJC(28)+TJC(28)+PGA+EGA; PGA/EGA on 1-10, 10 = maximal activity; settings: for ΔCDAI: 1st visit minus 2nd visit CDAI; for 2nd visit CDAI: 12 weeks after the treatment started; for number of treated subjects who did not respond (CDAI definition) / number of treated subjects who responded (CDAI definition): seven CPIRA subjects treated per drug
From the text: The Clinical Disease Activity Index (CDAI) is a useful clinical composite score for patients with rheumatoid arthritis. In some embodiments, it can be determined by the following formula: CDAI=SJC(28)+TJC(28)+PGA+EGA, wherein SJC(28) is Swollen 28-Joint Count (shoulders, elbows, wrists, MCPs, PIPs including thumb IP, knees), TJC(28) is Tender 28-Joint Count (shoulders, elbows, wrists, MCPs, PIPs including thumb IP, knees), PGA is Patient Global disease Activity (patient's self assessment of overall RA disease activity on a scale 1-10 where 10 is maximal activity), and EGA is Evaluator's Global disease Activity (evaluator's assessment of overall RA disease activity on a scale 1-10 where 10 is maximal activity). In some embodiments, a subject with an RA can have a CDAI that is equal to or greater than 5, 10, 15, or 20. In some embodiments, the subject has an active RA, and a subject with an active RA can have a CDAI that is equal to or greater than 10. A CDAI that is equal to or greater than 10 often indicates moderate or severe RA.
Active RA patients were recruited through the Central Pain in Rheumatoid Arthritis (CPIRA) study. The PBMC were collected from active RA patients at the time when they switched or started a new RA treatment and were also collected 12 weeks after the treatment started.
PBMC collected from 14 CPIRA subjects before they started either etanercept or adalimumab were analyzed (Table 1). Seven of the […] subjects were treated by etanercept.
The responsiveness to treatment was determined by the following definition.
CDAI decrease>=12 for those with baseline CDAI>22,
CDAI decrease>=6 for those with baseline CDAI>=10,
CDAI decrease>=1 for those with baseline CDAI<10.

[2] = adalimumab non-responders, one value per subject: BW34, BW83
[3] = adalimumab responders, one value per subject: BW32, BW57, BW85, BW89, BS137
[4] = etanercept non-responders, one value per subject: BW53, BW80, BW116
[5] = etanercept responders, one value per subject: BW39, BW56, BW82, BW110

Substance | PTPN22 Drug/no-drug ratio ([1]; PBMC of adalimumab non-responders collected before treatment, adalimumab 100 ug/ml, one value per subject: BW34, BW83) | PTPN22 Drug/no-drug ratio ([1]; PBMC of adalimumab responders collected before treatment, adalimumab 100 ug/ml, one value per subject: BW32, BW57, BW85, BW89, BS137) | ΔCDAI (active RA patients; [2]) | 2nd visit CDAI (active RA patients; [2]) | ΔCDAI (active RA patients; [3]) | 2nd visit CDAI (active RA patients; [3]) | number of treated subjects who did not respond (CDAI definition) (active RA patients) | number of treated subjects who responded (CDAI definition) (active RA patients) | PTPN22 Drug/no-drug ratio ([1]; PBMC of etanercept non-responders collected before treatment, etanercept 250 ug/ml, one value per subject: BW53, BW80, BW116, BW34*) | PTPN22 Drug/no-drug ratio ([1]; PBMC of etanercept responders collected before treatment, etanercept 250 ug/ml, one value per subject: BW39, BW56, BW82, BW110) | ΔCDAI (active RA patients; [4]) | 2nd visit CDAI (active RA patients; [4]) | ΔCDAI (active RA patients; [5]) | 2nd visit CDAI (active RA patients; [5])
adalimumab | 1.17 and 0.93 | 1.82 and 1.77 and 1.97 and 2.37 and 1.67 | 4.8 and 1 | 24.2 and 13 | 15.2 and 10 and 21 and 23 and 13 | 0 and 9 and 25 and 34 and 18 | two | five | – | – | – | – | – | –
etanercept | – | – | – | – | – | – | three | Four | 0.86 and 1.18 and 1.23 and 1.35 | 2.14 and 2.04 and 1.82 and 2.5 | 1.5 and −0.5 and 6 | 25.5 and 21.5 and 23 | 12.5 (2×) and 9 and 23 | 0 and 6.5 and 6 and 12

From patent US11674951B2, “Methods for identifying a treatment for rheumatoid arthritis” (The Brigham and Women's Hospital, Inc., priority 2017, dated 2023)
